How the values were obtained:
[1] = tested on: RAW264.7 cells; assay: Cellular uptake test (intracellular Tri by HPLC); assay type: cell-based, murine; settings: for Reduction in cellular uptake of HA@Tri-BLs: inhibitor or competitor added: free HA 25 μM, HUTCH-1 10 μg/mL, hypertonic sucrose 400 mM, chlorpromazine 25 μM, EIPA 50 μM, vs control without inhibitor
Experimental: The cellular uptake of Tri-loaded bilosomes were investigated in RAW264.7 cells, a murine macrophage line. The cells were cultured in a RPMI-1640 medium containing 10% FBS (Gibco, CA, USA) at 37 °C in 5% CO2. When the cells grew to 80 ∼ 90% confluence, they were eligible for the cellular uptake test. Tri solution (dissolve in 75% ethanol), Tri-BLs and HA@Tri-BLs were diluted to 10 μg/mL with the culture medium and introduced into the cell wells for coincubation. To elucidate the uptake mechanism of HA@Tri-BLs, the uptake of HA@Tri-BLs was specially measured in the presence of various cytosis inhibitors or competitor, including hypertonic sucrose (400 mM), chlorpromazine (25 μM), simvastatin (5 μM), genistein (200 μM), free HA (25 μM), HUTCH-1 (10 μg/mL), EIPA (50 μM) and Lantraculin A (2.5 μM) (Deng et al., [2017]). The intracellular drug concentration was determined using HPLC by lysing the cells with RIPA lysis buffer and corrected by the protein content with BCA protein assay kit.

[2] = Intra-articular pharmacokinetics and biodistribution in arthritic rats; assay type: in vivo, Sprague–Dawley (SD) rats
[3] = Plasma pharmacokinetics in arthritic rats; assay type: in vivo; settings: Sprague-Dawley, rat, iv, i.v. 10 mg/kg, mean ± SD
Experimental: The pharmacokinetics and tissue distribution of free Tri, Tri-BLs and HA@Tri-BLs were studied in arthritic rats. Sprague–Dawley (SD) rats weighing 250 ± 20 g were used to establish the arthritic model. The rats were acclimatized for 20 days in a standard animal room and provided with food and water ad libitum. On the 21st day, the rats were received injection of Freund’s complete adjuvant (FCA) containing 10 mg/mL of Mycobacterium tuberculosis (Sigma-Aldrich) at the right foot (Jia and He, [2016]). […] The established arthritic rats were intravenously injected with Tri solution (dissolved in 75% ethanol solution and diluted with deionized water), Tri-BLs and HA@Tri-BLs via the jugular vein at a dose of 10 mg/kg. After administration, aliquots of blood (∼250 μL) were continuously sampled from the caudal vein into heparinized tubes at predetermined intervals.
Another three groups of arthritic rats were applied for biodistribution study to analyze the in vivo drug distribution of Tri solution, Tri-BLs and HA@Tri-BLs. At 0.5, 1, 2 and 4 h after injection, […] were sacrificed, and the heart, liver, spleen, lung, and kidney as well as the joint were excised or harvested. The drug in the blood and tissue samples was extracted twice with ethyl acetate from the prepared plasma and tissue homogenates (Zhang et al., [2014]). The extracted drug solution was then condensed and reconstituted in 50 μL of methanol for HPLC analysis with gossypol as an internal standard. The experimental protocols settled were reviewed and approved by the Animal Care and Use Committee of Chengdu University of Traditional Chinese Medicine.

[4] = Water solubility; assay type: physicochemical

## CCN(c1nc(N)c(C(=O)NC(=N)N)nc1Cl)C(C)C [EIPA, ethylisopropyl amiloride]
[1]
  Reduction in cellular uptake of HA@Tri-BLs: inhibited the cellular uptake of HA@Tri-BLs to different extents

## CC1=C(O)C(=O)C=C2C1=CC=C1[C@@]2(C)CC[C@@]2(C)[C@@H]3C[C@](C)(C(=O)O)CC[C@]3(C)CC[C@]12C [Tri solution, Tripterine]
[2]; Sprague-Dawley, rat, iv, arthritic rats, i.v. 10 mg/kg, joint, mean ± SD, n = 6
  Cmax: 652 ± 146 ng/mL
[2]; Sprague-Dawley, rat, iv, arthritic rats, i.v. 10 mg/kg, joint, mean ± SD, n = 6, read-out: AUC0−t in the joint
  AUC(0-t): 1470 ± 402 ng·h/mL
[2]; Sprague-Dawley, rat, iv, arthritic rats, i.v. 10 mg/kg, joint, read-out: AUC0–∞ pertinent to the joints
  AUC(0-inf): 1470 ng·h/mL
[2]; arthritic rats, 0.5, 1, 2 and 4 h after injection
  Biodistribution of Tri in organs: high distribution in the organs of heart and kidney besides the plasma
[3]; n = 6
  AUC(0-inf): 35900 ± 530 ng·h/mL
  half-life: 6.15 ± 0.22 h
[3]; n = 6, read-out: CL (total drug clearance from plasma) (converted)
  clearance: 4.65 mL/min
[3]; n = 6, read-out: Cmax (maximum plasma concentration)
  Cmax: 22600 ± 710 ng/mL
[3]; n = 6, read-out: MRT (mean residence time)
  MRT: 7.07 ± 0.767 h
[3]; n = 6, read-out: V (apparent volume of distribution)
  Vd: 1.97 ± 0.35 L
[1]; 10 μg/mL, three incubation times
  Cellular uptake of Tri (intracellular Tri content): minimal uptake level
[4]
  Water-solubility: extremely poor water-solubility

## CN(C)CCCN1c2ccccc2Sc2ccc(Cl)cc21 [chlorpromazine, Chlorpromazine]
[1]
  Reduction in cellular uptake of HA@Tri-BLs: inhibited the cellular uptake of HA@Tri-BLs to different extents

## OC[C@H]1O[C@@](CO)(O[C@H]2O[C@H](CO)[C@@H](O)[C@H](O)[C@H]2O)[C@@H](O)[C@@H]1O [hypertonic sucrose, sucrose]
[1]
  Reduction in cellular uptake of HA@Tri-BLs: inhibited the cellular uptake of HA@Tri-BLs to different extents

## hyaluronic acid [free HA]
[1]
  Reduction in cellular uptake of HA@Tri-BLs: 47.5%

Source: PMC6713218, “Hyaluronic acid-functionalized bilosomes for targeted delivery of tripterine to inflamed area with enhancive therapy on arthritis” (Drug Delivery, 2019)
